The nature of this series: Second-order rate constant (M-1 s-1) for the alkaline hydrolysis in water at 30 degrees C. As to conditions: buffer.

Take `C=CC[C@H]1C(=O)OC2CCN(C(=O)OCc3ccccc3)[C@@H]21` (some centres undefined): the kOH was found to be 0.252 M⁻¹ s⁻¹.

Compound `O=C1c2ccccc2S(=O)(=O)N1Cc1ccccc1` came in with a kOH of 4.06 M⁻¹ s⁻¹. `CCC[C@H](NC(=O)N1C(=O)C(CC)(CC)C1Oc1ccc(C(=O)N2CCN(C)CC2)cc1)c1ccc2c(c1)OCO2` (some centres undefined) yielded a kOH of 0.027 M⁻¹ s⁻¹. Take `CN1CCCC1=O` [METHYLPYRROLIDONE]: the kOH came to 3.07 M⁻¹ s⁻¹.

On to `CC(C)[C@@H]1C(=O)N(S(C)(=O)=O)[C@@H]2CCN(C(=O)C3CN(CC(C)(C)C)C3)[C@H]21`, for which the kOH stood at 0.0601 M⁻¹ s⁻¹.

Regarding `O=C1CCCN1c1ccccc1`, the kOH came out at 0.000013 M⁻¹ s⁻¹. The value for `O=C1CCCN1` [2-PYRROLIDONE] was 1.2 M⁻¹ s⁻¹; that for `CN1C(=O)CCC1=O` was 0.825 M⁻¹ s⁻¹; that for `CCOC(C)=O` [ETHYL ACETATE] was 0.164 M⁻¹ s⁻¹. `CC(C)[C@@H]1C(=O)N(S(C)(=O)=O)[C@@H]2CCN(C(=O)/C=C/CN3CCCCC3)[C@H]21` came in with a kOH of 0.07 M⁻¹ s⁻¹. The compound `CC(=O)N(C)S(=O)(=O)Cc1ccccc1` gave a kOH of 1.3 M⁻¹ s⁻¹.

With `CC(=O)N(C)C(C)=O`, the kOH amounted to 1.54 M⁻¹ s⁻¹.

The compound `O=C1CCCO1` [BUTYROLACTONE] returned a kOH of 1.31 M⁻¹ s⁻¹.

Consider `CC(C)[C@@H]1C(=O)N(S(C)(=O)=O)[C@@H]2CCN(C(=O)c3coc(CN4CCCC4)n3)[C@H]21`, for which the kOH was determined as 0.08 M⁻¹ s⁻¹.

For the origin of these results see ChEMBL document CHEMBL1135486, “Acylating agents as enzyme inhibitors and understanding their reactivity for drug design” (J Med Chem, 2002).
